Experiments:
human platelets = test: U-46619 (thromboxane A2 mimic)-induced aggregation in human platelets (Experiment 2); assay type: cell-based; conditions: Platelet, U-46619 10^-5 ~3×10^-5 M; for inhibition at 0.3 µM: 3 × 10^-7 M; for inhibition at 0.1 µM: 10^-7 M
Experimental: Thromboxane A2 antagonistic activity Effect on thromboxane A2 minic (U-46619) - induced aggregation in human platelets.
(§1) Method: Blood was collected in 3.15% sodium citrate (0.1 ml for 0.9 ml of blood) by aortic puncture from anesthetized guinea-pigs. Citrated blood samples were centrifuged at 950 rpm for 10 minutes and 2,000 rpm for 10 minutes at room temperature to obtain platelet-rich plasma (PRP) and platelet-poor plasma (PPP), respectively. The platelet count of PRP was adjusted to 300,000/μl with PPP. Platelet aggregation was measured with a photometer (Hematracer 6, Niko Bioscience, Japan). PRP (250 μl) was preincubated at 37° C. for 2 minutes and then incubated for 2 minutes with drug solution (25 μl), followed by stimulation with U-46619 (25 μl). Effect of drug was shown as the percent inhibition of maximal aggregation of drug-treated group versus that of control group. The concentration of U-46619 was chosen to obtain submaximal aggregation in each PRP (10^-5 ~3×10^-5 M).

guinea-pig platelets = test: U-46619 (thromboxane A2 mimic)-induced aggregation in guinea-pig platelets (Experiment 1); assay type: cell-based; conditions: guinea-pig PRP, U-46619 3×10^-7 M
Experimental: Thromboxane A2 antagonistic activity Effect on thromboxane A2 minic (U-46619) - induced aggregation in guinea-pig platelets.
as §1, with “5,000,000/μl” for “300,000/μl”, “(3×10^-7” for “(10^-5 ~3×10^-5”

rats = test: Oral toxicity in rats, 2 weeks; assay type: in vivo, rat; conditions: orally, 1000 mg/kg/day for 2 weeks, 3 rats
Experimental: Toxicity of the derivatives of the present invention is low. For example, in case that (R)-7-(4-fluorophenyl)-7-(5-hydroxy-6,7-dimethyl-l-oxoindan-4-yl)heptanoicacid was administered orally to 3 rats at a dose of 1000 mg/kg/day for 2 weeks, no rat died. The derivatives of the present invention can be safely administered orally or parenterally as they are or as pharmaceutical compositions of known forms obtained by admixing them with known pharmaceutically acceptable carriers, excipients and the like, for example, tablets, capsules (including soft capsules and micro-capsules), liquids, injection preparations, suppositories and the like, according to pharmaceutically acceptable methods. The dosage is varied according to patients, routes of administration, conditions of diseases to be treated and the like. However, in the case of oral administration to, for example, an adult patient, usually, a dose per one administration is about 0.1 to 20 mg/kg of the body weight, perferably, about 0.1 to 10 mg/kg of the body weight and, conveniently, the administration is carried out one to two times per day.

[1] = tested on: guinea pig tracheal strip; test: Inhibitory effect on U-46619 (TXA2 mimic)-induced contraction in guinea pig tracheal strip (Experiment 3); conditions: Cavia porcellus; U-46619 10^-8 M; compound added 1 minute before; read-out: IC50 (Concentration for 50% inhibition)
Experimental: Inhibitory effect on U-46619 (TXA2 minic) - induced contraction in guinea pig tracheal strip
Method: Guinea pig tracheae were removed, and tracheal strips were prepared. Each strip was placed in a 10 ml organ bath containing Tyrode's solution aerated with 5% CO2 -95% O2 gas at 37° C. The tracheal strip was placed under resting tension of 1 g. The contractile response of the strip to thromboxane A2 minic U-46619 (10^-8 M) were examined. The strip was treated with the test compound for 1 minute before the addition of U-46619.
Result: The results are shown in Table 10 as the concentration for 50% inhibition (IC50).

[2] = tested on: U-46619 (TXA2 minic) - induced bronchoconstriction in guinea pig; test: Inhibitory effect on U-46619 (TXA2 mimic)-induced bronchoconstriction in guinea pig (Experiment 4); assay type: in vivo; conditions: orally 1 hour before U-46619 (10 μg/kg), p < 0.01 vs control group
Experimental: Inhibitory effect on U-46619 (TXA2 minic) - induced bronchoconstriction in guinea pig.
Method: Six male Hartley guinea pig were used per one group. The guinea pig anesthetized with urethane (1.5 g/kg, i.p.) was fixed in a dorsal position, subjected to tracheotomy and connected to a respirator through a cannula. A side branch of the tracheal cannula was connected to a respirator (Harvard apparatus rodent respirator Type 680) at the rate of 70 strokes/min. and a constant volume of 3 to 5 ml.
Inflation pressure was kept constant at 10 cm H2 O.
After treatment with gallamine triethiodide (1 mg/kg, i.v.), U-46619 (10 μg/kg) dissolved in a physiolosical saline solution was given through a carotid cannula and the airway resistance was measured by the overflow technique of Konzett-Rossler method (Konzett, H. and Rossler, R., Naunyn-Schmiedegerg's Arch, Exp. Path. Pharmak., 195, 71-74 (1940)). A test compound was suspended in 5% gum arabic solution and was administered orally 1 hour before the tratment with U-46619.

SMILES	inhibition at 0.3 µM (human platelets)	inhibition at 0.1 µM (human platelets)	% Inhibition of aggregation (guinea-pig platelets; 3 × 10^-8 M)	% Inhibition of aggregation (guinea-pig platelets; 10^-7 M)	% Inhibition of aggregation (guinea-pig platelets; 10^-8 M)	mortality (rats)	IC50 [1]	inhibition at 0.03 µM (human platelets; 3 × 10^-8 M)	inhibition at 0.01 µM (human platelets; 10^-8 M)	inhibition at 0.3 µM (guinea-pig platelets; Cavia porcellus, Platelet, 3 × 10^-7 M)	% Inhibition ([2]; 0.31 mg/kg)	% Inhibition ([2]; 1.25 mg/kg)
Cc1c(C)c(CO)c(C)c([C@H](CCCCCC(=O)O)c2ccc(F)cc2)c1O [Compound 20, (R)-7-(4-fluorophenyl)-7-(2-hydroxy-5-hydroxylmethyl-3,4,6-trimethylphenyl)heptanoic acid]	100%	48%	12%	77%	3%							
Cc1c(C)c2c(c([C@H](CCCCCC(=O)O)c3ccc(F)cc3)c1O)CCC2=O [Compound 28, (R)-7-(4-fluorophenyl)-7-(5-hydroxy-6,7-dimethyl-1-oxoindan-4-yl)heptanoic acid]	100%	78%	5%	36%	0%	no rat died	700 pM	30%	13%	89%	84%	84%

— patent publication US5354913A, “Optically active phenol derivatives and preparation thereof” (Takeda Chemical Industries, Ltd., priority 1992, dated 1994)
